# Measurements: US9469647B2, “Salt crystals” (INTRA-CELLULAR THERAPIES, INC., priority 2012, dated 2016)
# Structures can show the parent of a compound that is named as a salt. Where two headings read alike, the source gives them in different places.
# Assay: Bridging study of monophosphate salt and free base in dog (plasma pharmacokinetics)
# Assay type: in vivo
# Conditions: po, 40 mg/kg; for half-life: read-out: E Half-life (converted)
# Description: The mono-phosphate salt of (6aR,9aS)-5,6a,7,8,9,9a-hexahydro-5-methyl-3-(phenylamino)-2-((4-(6-fluoropyridin-2-yl)phenyl)methyl)-cyclopent[4,5]imidazo[1,2-a]pyrazolo[4,3-e]pyrimidin-4(2H)-one is administered to dogs at a dose of 40 mg/kg in gelatin capsules or via oral gavage in a vehicle formulation of HCl-Citrate, pH 3.5, 0.5% methylcellulose in water. […] The analysis of drug concentration in plasma samples collected is analyzed.
# The pharmacokinetic (PK) parameters are determined from the plasma concentration versus time data by non-compartmental methods with uniform weighting (PK solutions 2.0™, Summit Research Services, Montrose, Colo.). The maximum observed concentration (Cmax) and the time of the maximum observed concentration (tmax) are obtained from the bioanalytical raw data. The area-under-the-plasma concentration-time curve from time zero to the time of the last measurable sample (AUC_) is calculated by the trapezoidal rule.
# [1] = female, dog F-1101, oral gavage
# [2] = female, dog F-1102, oral gavage
# [3] = female, dog F-2102, oral capsule
smiles,measurement,setting,value
"CN1C(=O)c2c(nn(Cc3ccc(-c4cccc(F)n4)cc3)c2Nc2ccccc2)N2C1=N[C@@H]1CCC[C@@H]12 [Phosphate salt, (6aR,9aS)-5,6a,7,8,9,9a-hexahydro-5-methyl-3-(phenylamino)-2-((4-(6-fluoropyridin-2-yl)phenyl)methyl)-cyclopent[4,5]imidazo[1,2-a]pyrazolo[4,3-e]pyrimidin-4(2H)-one]",AUC,"both sexes, Mean, oral capsule",18700 ng·h/mL
same,Tmax,"both sexes, Mean, oral capsule",2 h
same,half-life,"both sexes, Mean, oral capsule",7.3 h
same,AUC,"both sexes, Mean, oral gavage",21300 ng·h/mL
same,Tmax,"both sexes, Mean, oral gavage",4 h
same,half-life,"both sexes, Mean, oral gavage",8.7 h
same,AUC,[1],16200 ng·h/mL
same,Cmax,[1],1080 ng/mL
same,Tmax,[1],4 h
same,half-life,[1],6.6 h
same,AUC,[2],21300 ng·h/mL
same,Cmax,[2],1360 ng/mL
same,Tmax,[2],8 h
same,half-life,[2],5.5 h
same,AUC,[3],20500 ng·h/mL
same,Cmax,[3],1470 ng/mL
same,Tmax,[3],8 h
same,half-life,[3],6.2 h
same,AUC,"male, dog M-1001, oral gavage",16900 ng·h/mL
same,Cmax,"male, dog M-1001, oral gavage",918 ng/mL
same,Tmax,"male, dog M-1001, oral gavage",8 h
same,half-life,"male, dog M-1001, oral gavage",7.8 h
same,AUC,"male, dog M-1002, oral gavage",31600 ng·h/mL
same,Cmax,"male, dog M-1002, oral gavage",1520 ng/mL
same,Tmax,"male, dog M-1002, oral gavage",4 h
same,half-life,"male, dog M-1002, oral gavage",12 h
same,AUC,"male, dog M-2001, oral capsule",13200 ng·h/mL
same,Cmax,"male, dog M-2001, oral capsule",2430 ng/mL
same,Tmax,"male, dog M-2001, oral capsule",2 h
same,half-life,"male, dog M-2001, oral capsule",4.6 h
same,AUC,"male, dog M-2002, oral capsule",21900 ng·h/mL
same,Cmax,"male, dog M-2002, oral capsule",1530 ng/mL
same,Tmax,"male, dog M-2002, oral capsule",2 h
same,half-life,"male, dog M-2002, oral capsule",7.8 h
same,Cmax,"Mean, oral capsule",1330 ng/mL
same,Cmax,"Mean, oral gavage",1160 ng/mL
